Reference: patent publication US6962906B2, “Oligonucleotide analogues, methods of synthesis and methods of use” (Active Motif, priority 2000, dated 2005)
Several values for one entry are separate records, joined by “and”; a condition that tells them apart may be missing. Equal entries are not always repeated.

Legend:
Format in all cases: binding
[1] = tested on: DNA oligomer 5′-TGGTCTCACGTCAGTG-3′ (SEQ ID NO: 19); assay: Melting curve analysis, mismatch discrimination in moderate salt, DNA/DNA control; conditions: for Tm, ° C. DNA/DNA: 20 millimolar Tris-HCl, pH 7.5, 150 millimolar NaCl, 10 millimolar MgCl2, oligomers 1:1; for ΔTm DNA/DNA: 150 millimolar NaCl, relative to no mismatches
Source text: (§1) The sequence of the […] oligomer was: Th-Gp-Gh-Tp-Ch-Tp-Ch-Ap-Ah-Gp-Th-Cp-Ah-Gp-Th-Gp-dT, where the subscript h denotes a “HypNA” monomeric unit and the subscript p denotes a “pPNA” monomeric unit. […] For performing DNA-DNA control hybridizations, a DNA oligomer with a sequence identical to that of the […] oligomer, […]) was also synthesized. To perform the melting curve analysis, the DNA oligomers and […] oligomers were mixed at a 1:1 in a volume of 400 microliters. For nucleic acid hybridization controls, DNA oligomers and complementary (or partially complementary) DNA oligomers, were mixed at a 1:1 ratio in a volume of 400 microliters. The hybridization solutions contained 20 millimolar Tris-HCl, pH 7.5, 150 millimolar NaCl, and 10 millimolar MgCl2. The mixtures of DNA oligomers or DNA oligomers with […] oligomers were then incubated at 90 degrees C. for 3 minutes and allowed to cool gradually to room temperature overnight. […] Changes in the absorbance at 260 nanometers were recorded, and a Tm was calculated for each combination of oligomers. In some cases, there was no discernible Tm, which we interpret to be the result of the inability of particular oligomer pairs to form stable complexes.

HypNA-pPNA 16-mer [2] = assay: Melting curve analysis, mismatch discrimination in moderate salt, PNA/DNA; conditions: for Tm, ° C. PNA/DNA: 20 millimolar Tris-HCl, pH 7.5, 150 millimolar NaCl, 10 millimolar MgCl2, oligomers 1:1, * = Tms not reliable, complex probably unstable; for ΔTm PNA/DNA: 150 millimolar NaCl, relative to no mismatches
Source text: as §1

[3] = tested on: DNA oligomer with a sequence identical to that of the HypNA-pPNA oligomer; assay: Melting curve analysis, mismatch discrimination in high salt, DNA/DNA control; conditions: for Tm, ° C. DNA/DNA: 20 millimolar Tris-HCl, pH 7.5, 500 millimolar NaCl, 10 millimolar MgCl2, oligomers 1:1; for ΔTm DNA/DNA: 500 millimolar NaCl, relative to no mismatches
Source text: (§2) The sequence of the […] oligomer was: Th-Gp-Gh-Tp-Ch-Tp-Ch-Ap-Ah-Gp-Th-Cp-Ah-Gp-Th-Gp-. […] For performing DNA-DNA control hybridizations, a DNA oligomer with a sequence identical to that of the […] oligomer was also synthesized. To perform the melting curve analysis, the DNA oligomers and […] oligomers were mixed at a 1:1 ratio in a volume of 400 microliters. For nucleic acid hybridization controls, DNA oligomers and complementary (or nearly complementary) DNA oligomers, were mixed at a 1:1 ratio in a volume of 400 microliters. The hybridization solutions contained 20 millimolar Tris-HCl, pH 7.5, 500 millimolar NaCl, and 10 millimolar MgCl2. The mixtures of DNA oligomers or DNA oligomers with […] oligomers were then incubated at 90 degrees C. for 3 minutes and allowed to cool gradually to room temperature overnight. […] Changes in the absorbance at 260 nanometers were recorded, and a Tm was calculated for each combination of oligomers. In some cases, there was no discernible Tm, which we interpret to be the result of the inability of particular oligomer pairs to form stable complexes.

HypNA-pPNA 16-mer [4] = assay: Melting curve analysis, mismatch discrimination in high salt, PNA/DNA; conditions: for Tm, ° C. PNA/DNA: 20 millimolar Tris-HCl, pH 7.5, 500 millimolar NaCl, 10 millimolar MgCl2, oligomers 1:1; for ΔTm PNA/DNA: 500 millimolar NaCl, relative to no mismatches
Source text: as §2

[5] = tested on: Oligonucleotide probes labeled with ^32P (DNA probe); assay: Hybridization of support-bound polyacrylamide-oligomer co-polymers to labeled oligonucleotide probes; effect of single-base mismatches; conditions: 0.1 M NaCl, 10 mM sodium phosphate (pH 7), 5 mM EDTA, 10 mM MgCl2, 0.1% sodium dodecyl sulfate
16 mer poly A DNA = assay: Melting curve analysis of poly T probes hybridized to poly A DNA; conditions: 20 mM Tris, pH 7.5, 100 mM NaCl, 10 mM MgCl2; DNA to PNA oligomer 1:2 for PNA analogues
Source text: (§3) In this experiment we compared hybridized complexes of DNA/DNA, DNA/PNAs, RNA/DNA and PNA/PNAs, for the stability of the complex formed. Poly A DNA oligomers, poly T DNA oligomers, poly A RNA oligomers, and poly T RNA oligomers were synthesized by solid phase synthesis. PNA oligonucleotide analogues were synthesized by solid phase synthesis using methods disclosed herein. The classical PNA Poly T oligomer consisted of a PNA having a N-(2-aminoethyl)glycine backbone. […] The 1:2 Poly T PNA consisted of: biotin-linker-(HypNA-pPNA-pPNA)5-dT. The 1:3 Poly T PNA consisted of: biotin-linker-[(HypNA-pPNA)-(pPNA-pPNA)]4-dT.
(§4) To hybridize DNA/DNA and DNA/RNA oligomers, equal amounts of oligonucleotide were mixed in 20 mM Tris, pH 7.5, 100 mM NaCl, 10 mM MgCl2, incubated at 90° C. for 3 minutes and left to cool gradually to room temperature overnight. Samples were then heated at a rate of 1° C. per minute from 20° C. to 100° C., using a spectrophotometer linked to a thermal control unit. Changes in A260 were recorded and a Tm value was calculated for each complex.
(§5) To hybridize PNA oligonucleotide analogues to DNA and RNA oligomers, the ratio of DNA (or RNA) oligomer to PNA oligomer was 1:2. This 1:2 ratio was used to promote the formation of a triplex structure, with 2 PNA oligomers binding to each DNA oligomer.
(§6) These samples were hybridized and treated in a identical manner to the DNA/DNA and DNA/RNA complexes to obtain Tm values.

16 mer poly A RNA = assay: Melting curve analysis of poly T probes hybridized to poly A RNA; conditions: 20 mM Tris, pH 7.5, 100 mM NaCl, 10 mM MgCl2; RNA to PNA oligomer 1:2 for PNA analogues
Source text: as §3, §4, §5, §6

## 5′-CAC GGA GTT GAG ACC A -3′ (SEQ ID NO: 32) (DNA CACGGAGTTGAGACCA; DNA, backbone not given here) [Mismatch M, DNA oligomer with mismatches to the HypNA-pPNA 16-mer]
[1]
  Tm, ° C. DNA/DNA: 50.2 °C and 45.2 °C
  ΔTm DNA/DNA: 11.5 °C and 16.4 °C

## 5′-CAC TGA ATT GAG ACC A -3′ (SEQ ID NO: 30) (DNA CACTGAATTGAGACCA; DNA, backbone not given here) [Mismatch J, DNA oligomer with mismatch to the HypNA-pPNA 16-mer]
[1]
  Tm, ° C. DNA/DNA: 52.3 °C and 52.5 °C
  ΔTm DNA/DNA: 9.3 °C and 9.2 °C

## 5′-CAC TGA CAT GAG ACC A -3′ (SEQ ID NO: 28) (DNA CACTGACATGAGACCA; DNA, backbone not given here) [Mismatch H, DNA oligomer with mismatch to the HypNA-pPNA 16-mer]
[1]
  Tm, ° C. DNA/DNA: 50.0 °C and 53.4 °C
  ΔTm DNA/DNA: 11.6 °C and 8.3 °C
HypNA-pPNA 16-mer [2]
  Tm, ° C. PNA/DNA: 52.7 °C and 51.8 °C
  ΔTm PNA/DNA: 5.5 °C and 6.1 °C
[3]
  Tm, ° C. DNA/DNA: 55.1 °C and 53.3 °C
  ΔTm DNA/DNA: 9 °C and 11 °C
HypNA-pPNA 16-mer [4]
  Tm, ° C. PNA/DNA: 41.3 °C and 43.5 °C
  ΔTm PNA/DNA: 17 °C and 15 °C

## 5′-CAC TGA CGT GAG ACC A -3′ (SEQ ID NO: 26) (DNA CACTGACGTGAGACCA; DNA, backbone not given here) [Mismatch F, DNA oligomer with mismatch to the HypNA-pPNA 16-mer]
[1]
  Tm, ° C. DNA/DNA: 52.6 °C and 55.6 °C
  ΔTm DNA/DNA: 9 °C and 6.1 °C
HypNA-pPNA 16-mer [2]
  Tm, ° C. PNA/DNA: 43.7 °C
  ΔTm PNA/DNA: 14.5 °C and 14.2 °C
[3]
  Tm, ° C. DNA/DNA: 53.9 °C and 55.3 °C
  ΔTm DNA/DNA: 10 °C and 9 °C
HypNA-pPNA 16-mer [4]
  Tm, ° C. PNA/DNA: No Tm

## 5′-CAC TGA CTG GAG ACC A -3′ (SEQ ID NO: 27) (DNA CACTGACTGGAGACCA; DNA, backbone not given here) [Mismatch G, DNA oligomer with mismatch to the HypNA-pPNA 16-mer]
[1]
  Tm, ° C. DNA/DNA: 52.2 °C and 52.6 °C
  ΔTm DNA/DNA: 9.4 °C and 9.1 °C
[3]
  Tm, ° C. DNA/DNA: 56.2 °C and 56.1 °C
  ΔTm DNA/DNA: 8 °C
HypNA-pPNA 16-mer [4]
  Tm, ° C. PNA/DNA: No Tm

## 5′-CAC TGA CTT GAG ACC A -3′ (SEQ ID NO: 20) [No mismatches]
[1]
  Tm, ° C. DNA/DNA: 61.7 °C and 61.6 °C
HypNA-pPNA 16-mer [2]
  Tm, ° C. PNA/DNA: 57.9 °C and 58.2 °C
[3]
  Tm, ° C. DNA/DNA: 63.8 °C and 64.5 °C and 64.0 °C
HypNA-pPNA 16-mer [4]
  Tm, ° C. PNA/DNA: 59.1 °C and 58.0 °C

## 5′-CAC TGA CTT GAG ACG A -3′ (SEQ ID NO: 24) (DNA CACTGACTTGAGACGA; DNA, backbone not given here) [Mismatch D, DNA oligomer with mismatch to the HypNA-pPNA 16-mer]
[3]
  Tm, ° C. DNA/DNA: 60.8 °C and 62.7 °C
HypNA-pPNA 16-mer [4]
  Tm, ° C. PNA/DNA: 54.3 °C and 54.9 °C
  ΔTm PNA/DNA: 4 °C and 3 °C

## 5′-CAC TGA CTT GAG TCC A -3′ (SEQ ID NO: 23) (DNA CACTGACTTGAGTCCA; DNA, backbone not given here) [Mismatch C, DNA oligomer with mismatch to the HypNA-pPNA 16-mer]
[1]
  Tm, ° C. DNA/DNA: 51.6 °C and 53.8 °C
  ΔTm DNA/DNA: 10 °C and 7.9 °C
HypNA-pPNA 16-mer [2]
  Tm, ° C. PNA/DNA: 48.3 °C and 49.2 °C
  ΔTm PNA/DNA: 9.9 °C and 8.7 °C

## 5′-CAC TGA GTG GAG ACC A -3′ (SEQ ID NO: 22) (DNA CACTGAGTGGAGACCA; DNA, backbone not given here) [Mismatch B, DNA oligomer with mismatches to the HypNA-pPNA 16-mer]
[1]
  Tm, ° C. DNA/DNA: 42.6 °C
  ΔTm DNA/DNA: 19 °C and 18.9 °C
HypNA-pPNA 16-mer [4]
  Tm, ° C. PNA/DNA: No Tm

## 5′-CAC TGA GTT CAG ACC A -3′ (SEQ ID NO: 29) (DNA CACTGAGTTCAGACCA; DNA, backbone not given here) [Mismatch K, DNA oligomer with mismatches to the HypNA-pPNA 16-mer]
[1]
  Tm, ° C. DNA/DNA: 33.3 °C and 36.2 °C
  ΔTm DNA/DNA: 28.3 °C and 25.5 °C
HypNA-pPNA 16-mer [2]
  ΔTm PNA/DNA: 7 °C

## 5′-CAC TGA GTT GAG ACC A -3′ (SEQ ID NO: 21) [Mismatch A]
[1]
  Tm, ° C. DNA/DNA: 51.7 °C and 51.8 °C
  ΔTm DNA/DNA: 9.9 °C
HypNA-pPNA 16-mer [2]
  Tm, ° C. PNA/DNA: 45.1 °C and 45.4 °C
  ΔTm PNA/DNA: 13.1 °C and 12.5 °C
[3]
  ΔTm DNA/DNA: 7 °C
HypNA-pPNA 16-mer [4]
  Tm, ° C. PNA/DNA: 41.4 °C and 41.1 °C
  ΔTm PNA/DNA: 17 °C

## 5′-CAC TGA GTT GGG ACC A -3′ (SEQ ID NO: 31) (DNA CACTGAGTTGGGACCA; DNA, backbone not given here) [Mismatch L, DNA oligomer with mismatches to the HypNA-pPNA 16-mer]
[1]
  Tm, ° C. DNA/DNA: 47.4 °C and 50.0 °C
  ΔTm DNA/DNA: 14.2 °C and 11.7 °C
HypNA-pPNA 16-mer [2]
  ΔTm PNA/DNA: 24.3 °C

## 5′-CGG TGA CTT GAG ACC A -3′ (SEQ ID NO: 25) (DNA CGGTGACTTGAGACCA; DNA, backbone not given here) [Mismatch E, DNA oligomer with mismatches to the HypNA-pPNA 16-mer]
[1]
  Tm, ° C. DNA/DNA: 52.7 °C and 55.1 °C
  ΔTm DNA/DNA: 8.9 °C and 6.6 °C
[3]
  Tm, ° C. DNA/DNA: 56.5 °C and 56.8 °C
  ΔTm DNA/DNA: 7 °C
HypNA-pPNA 16-mer [4]
  Tm, ° C. PNA/DNA: No Tm

## 19 (DNA CTGCAAAGGACACCATGA; DNA, backbone not given here) [Oligomer 19]
[5]
  Td (degr. C.): 55 degr. C.
  Tm (degr. C.): 54 degr. C.

## 20 (DNA CTGCAAAGCACACCATGA; DNA, backbone not given here) [Oligomer 20]
[5]
  Td (degr. C.): 41 degr. C.
  Tm (degr. C.): 40 degr. C.

## biotin-linker-(HypNA-pPNA)7-dT [1:1 Poly T PNA-analog]
16 mer poly A DNA
  Target: 16 mer poly A DNA Tm, ° C.: 81.1 °C and 81.9 °C
16 mer poly A RNA
  Target: 16 mer poly A RNA Tm, ° C.: 73.0 °C and 72.7 °C

## biotin-linker-(HypNA-pPNA-pPNA)5-dT [1:2 Poly T PNA-analog]
16 mer poly A DNA
  Target: 16 mer poly A DNA Tm, ° C.: 74.4 °C and 74.0 °C
16 mer poly A RNA
  Target: 16 mer poly A RNA Tm, ° C.: 66.1 °C and 66.0 °C

## biotin-linker-[(HypNA-pPNA)-(pPNA-pPNA)]4-dT [1:3 Poly T PNA-analog]
16 mer poly A DNA
  Target: 16 mer poly A DNA Tm, ° C.: 60.9 °C and 60.8 °C
16 mer poly A RNA
  Target: 16 mer poly A RNA Tm, ° C.: 48.9 °C and 47.2 °C
